Experimental data taken from the supplement of paper PMC7341893.
± gives the standard deviation of the averaged measurements.

Tests used:
Assay in all cases: growth (OD600) normalised to reference wells; higher = more growth / less inhibition
GPI2_HIP = tested on: GPI2_HIP
Method: (§1)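 S. cerevisiae strains (wild type, SPT14 point-mutant knock-ins, HIP heterozygous and HOP homozygous deletion strains) were grown in rich medium in 96-well plates with 12-point serial dilutions of jawsamycin or clotrimazole (DMSO normalised to 2%). Growth was read as OD600 and normalised within each dilution series (NormOD, % growth). Wells set exactly to 100 are normalisation references and are left out.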

GPI15_HIP = tested on: GPI15_HIP
Method: as §1

SPT14(WT) = tested on: SPT14(WT)
Method: as §1

HO_HIP = tested on: HO_HIP
Method: as §1

SPT14_HIP = tested on: SPT14_HIP
Method: as §1

SPT14(T114A) = tested on: SPT14(T114A)
Method: as §1

SPT14(V76F) = tested on: SPT14(V76F)
Method: as §1

SPT14(H106Y) = tested on: SPT14(H106Y)
Method: as §1

GPI1_HIP = tested on: GPI1_HIP
Method: as §1

Clc1ccccc1C(c1ccccc1)(c1ccccc1)n1ccnc1 [Clotrimazole]
growth (GPI2_HIP; 0.125900179 µM): 101.2 ± 0.33%
growth (GPI2_HIP; 0.26439 µM): 99.573 ± 0.072%
growth (GPI2_HIP; 0.55522 µM): 94.15 ± 0.9%
growth (GPI2_HIP; 1.16596 µM): 14.5 ± 5.7%
growth (GPI2_HIP; 2.44852 µM): 2.59 ± 0.9%
growth (GPI2_HIP; 5.14189 µM): 1.15 ± 0.38%
growth (GPI2_HIP; 10.79796998 µM): 0.0555 ± 0.12%
growth (GPI2_HIP; 22.6757 µM): -0.447 ± 0.076%
growth (GPI2_HIP; 47.619 µM): -0.447 ± 0.21%
growth (GPI2_HIP; 100 µM): 1.041 ± 0.0034%
growth (GPI15_HIP; 0.125900179 µM): 100.7 ± 0.32%
growth (GPI15_HIP; 0.26439 µM): 99.95 ± 0.26%
growth (GPI15_HIP; 0.55522 µM): 94.01 ± 0.25%
growth (GPI15_HIP; 1.16596 µM): 7.93 ± 0.35%
growth (GPI15_HIP; 2.44852 µM): 3.69 ± 0.34%
growth (GPI15_HIP; 5.14189 µM): 1.3 ± 0.63%
growth (GPI15_HIP; 10.79796998 µM): -0.36 ± 0.11%
growth (GPI15_HIP; 22.6757 µM): -0.813 ± 0.16%
growth (GPI15_HIP; 47.619 µM): -0.839 ± 0.038%
growth (GPI15_HIP; 100 µM): 0.998 ± 0.065%
growth (SPT14(WT); 0.0599525 µM): 86.2 ± 5%
growth (SPT14(WT); 0.125900179 µM): 69.1 ± 4.9%
growth (SPT14(WT); 0.26439 µM): 8.87 ± 1%
growth (SPT14(WT); 0.55522 µM): 9.82 ± 2%
growth (SPT14(WT); 1.16596 µM): 6.88 ± 3.3%
growth (SPT14(WT); 2.44852 µM): 6.32 ± 1.9%
growth (SPT14(WT); 5.14189 µM): 4.16 ± 1.9%
growth (SPT14(WT); 10.79796998 µM): 3 ± 0.5%
growth (SPT14(WT); 22.6757 µM): 3.43 ± 0.38%
growth (SPT14(WT); 47.619 µM): -0.421 ± 0.093%
growth (SPT14(WT); 100 µM): -0.41 ± 0.088%
growth (HO_HIP; 0.125900179 µM): 101 ± 1.2%
growth (HO_HIP; 0.26439 µM): 98.3 ± 1%
growth (HO_HIP; 0.55522 µM): 94.61 ± 0.88%
growth (HO_HIP; 1.16596 µM): 8.24 ± 1.2%
growth (HO_HIP; 2.44852 µM): 1.95 ± 0.62%
growth (HO_HIP; 5.14189 µM): 0.55 ± 0.51%
growth (HO_HIP; 10.79796998 µM): -0.231 ± 0.18%
growth (HO_HIP; 22.6757 µM): -0.622 ± 0.1%
growth (HO_HIP; 47.619 µM): -0.564 ± 0.018%
growth (HO_HIP; 100 µM): 1.08 ± 0.34%
growth (SPT14_HIP; 0.125900179 µM): 101.3 ± 0.97%
growth (SPT14_HIP; 0.26439 µM): 99.746 ± 0.049%
growth (SPT14_HIP; 0.55522 µM): 91.5 ± 1.1%
growth (SPT14_HIP; 1.16596 µM): 11.7 ± 2.5%
growth (SPT14_HIP; 2.44852 µM): 3.86 ± 1.1%
growth (SPT14_HIP; 5.14189 µM): 1.8 ± 0.16%
growth (SPT14_HIP; 10.79796998 µM): 0.0343 ± 0.0096%
growth (SPT14_HIP; 22.6757 µM): -0.803 ± 0.032%
growth (SPT14_HIP; 47.619 µM): -0.679 ± 0.11%
growth (SPT14_HIP; 100 µM): 1.11 ± 0.42%
growth (SPT14(T114A); 0.0599525 µM): 89.1 ± 4.4%
growth (SPT14(T114A); 0.125900179 µM): 72 ± 5.1%
growth (SPT14(T114A); 0.26439 µM): 33.3 ± 5.7%
growth (SPT14(T114A); 0.55522 µM): 13.3 ± 1.6%
growth (SPT14(T114A); 1.16596 µM): 12.5 ± 3.9%
growth (SPT14(T114A); 2.44852 µM): 15.9 ± 2.4%
growth (SPT14(T114A); 5.14189 µM): 12 ± 2.4%
growth (SPT14(T114A); 10.79796998 µM): 3.16 ± 0.58%
growth (SPT14(T114A); 22.6757 µM): 3.52 ± 0.83%
growth (SPT14(T114A); 47.619 µM): 0.134 ± 0.084%
growth (SPT14(T114A); 100 µM): 0.19 ± 0.064%
growth (SPT14(V76F); 0.1259 µM): 101 ± 3.1%
growth (SPT14(V76F); 0.26439 µM): 99.4 ± 2.3%
growth (SPT14(V76F); 0.55522 µM): 104 ± 3.8%
growth (SPT14(V76F); 1.16596 µM): 97.7 ± 5.1%
growth (SPT14(V76F); 2.44852 µM): 95.9 ± 2.8%
growth (SPT14(V76F); 5.14189 µM): 98.2 ± 2.2%
growth (SPT14(V76F); 10.798 µM): 4.41 ± 1.4%
growth (SPT14(V76F); 22.6757 µM): 0.641 ± 0.71%
growth (SPT14(V76F); 47.619 µM): -1.36 ± 0.098%
growth (SPT14(V76F); 100 µM): -0.859 ± 0.094%
growth (SPT14(H106Y); 0.0599525 µM): 87.7 ± 6.5%
growth (SPT14(H106Y); 0.125900179 µM): 60.9 ± 11%
growth (SPT14(H106Y); 0.26439 µM): 6.75 ± 1.9%
growth (SPT14(H106Y); 0.55522 µM): 7.18 ± 0.99%
growth (SPT14(H106Y); 1.16596 µM): 4.48 ± 4%
growth (SPT14(H106Y); 2.44852 µM): 5.03 ± 1.3%
growth (SPT14(H106Y); 5.14189 µM): 3.41 ± 0.64%
growth (SPT14(H106Y); 10.79796998 µM): 1.98 ± 0.98%
growth (SPT14(H106Y); 22.6757 µM): 2.09 ± 0.21%
growth (SPT14(H106Y); 47.619 µM): -0.417 ± 0.078%
growth (SPT14(H106Y); 100 µM): -0.409 ± 0.09%
growth (GPI1_HIP; 0.125900179 µM): 99.71 ± 0.51%
growth (GPI1_HIP; 0.26439 µM): 99.45 ± 0.29%
growth (GPI1_HIP; 0.55522 µM): 92.9 ± 1%
growth (GPI1_HIP; 1.16596 µM): 10.1 ± 0.075%
growth (GPI1_HIP; 2.44852 µM): 4.4 ± 0.89%
growth (GPI1_HIP; 5.14189 µM): 1.82 ± 0.74%
growth (GPI1_HIP; 10.79796998 µM): 0.134 ± 0.29%
growth (GPI1_HIP; 22.6757 µM): -0.448 ± 0.11%
growth (GPI1_HIP; 47.619 µM): -0.6398 ± 0.0048%
growth (GPI1_HIP; 100 µM): 1.31 ± 0.1%
